Results on 10 compounds are retold here after patent publication US4563463A, “2-Oxo-1,3-oxazolo[4,5-h] quinolines useful as anti-allergy agents” (priority 1984, dated 1986).

Like-named read-outs stand apart in the source and are kept apart here. Some results are limits rather than exact numbers.

The test system of experiment [1] is Rat Passive Cutaneous Anaphylaxis. The experiment is described as follows: Rat Passive Cutaneous Anaphylaxis (PCA) Screen: inhibition of wheal formation. To be noted: for inhibition of wheal formation in the PCA test: 10 mg/kg, intraperitoneal; for ED50: Rattus norvegicus. It is filed as in vivo. From the text:
The compounds of this invention have potent activity in inhibiting the formation of a wheel when screened according to the Rat Passive Cutaneous Anaphylaxis (PCA) Screen as described by I. Mota, Life Sciences, 7, 465 (1963) and Z. Ovary, et al. Proceedings of Society of Experimental Biology and Medicine, 81, 584 (1952).

The subject of experiment [2] is passively sensitized Rat Mast Cells. The experiment is described as follows: Rat Mast Cell (RMC) test: inhibition of histamine release from passively sensitized Rat Mast Cells. It is filed as cell-based. Conditions: for RMC % inh.: at 50 μm (number in parentheses); for IC50: Mast cell, histamine release, passively sensitized rat mast cells, read-out: I50 value in the RMC test. The source says:
In addition, the compounds of this invention have potent activity as inhibitors of histamine release from passively sensitized Rat Mast Cells according to the porcedure described by E. Kusner, et al., Journal of Pharmacology and Experimental Therapeutics, 184, 41 (1973).

Where [3] appears, read: PO, 25 mg/kg (number in parentheses).
[4] abbreviates: PO, 125 mg/kg (number in parentheses).

Consider `O=c1[nH]c2cc(Cl)c3cccnc3c2o1` [Example 19], for which, in experiment [1] (setting [3]), the “PCA % inh. PO” value worked out at 0%.
Take `CC(C(=O)n1c(=O)oc2c3ncccc3c(Cl)cc21)c1ccccc1` (centres unmarked) [Example 23]: the RMC % inh. in experiment [2] is on record as 16%. For the same compound, in experiment [1] (IP, 125 mg/kg (number in parentheses)), the “PCA % inh. IP” value was 34%.
In the case of `CN(C)C(=O)n1c(=O)oc2c3ncccc3c(Cl)cc21` [Example 24], the RMC % inh. in experiment [2] is 18%. The “PCA % inh. PO” value in experiment [1] (setting [3]) was determined as 0%.
In the case of `CCOC(=O)c1nc2cc(Cl)c3cccnc3c2o1` [Example 4, 2-carboethoxy-5-chloro-1,3-oxazolo-[4,5-h]quinoline], the IC50 in experiment [2] was 100 nM. Moreover, the “inhibition of wheal formation in the PCA test” value in experiment [1] is listed as 59%.
Regarding `Cn1c(=O)oc2c3ncccc3c(Cl)cc21` [Example 25, 5-Chloro-3-methyl-2-oxo-3H-oxazolo[4,5-h]quinoline], the RMC % inh. in experiment [2] worked out at 0%. In addition, in experiment [1] (setting [4]), the “PCA % inh. PO” value amounted to 51%.
On the same counts, the results for `CC(=O)n1c(=O)oc2c3ncccc3ccc21` [Example 20, 3-Acetyl-2-oxo-3H-oxazolo[4,5-h]quinoline] are 18% and 14%.
As to `COc1cccc(C(=O)n2c(=O)oc3c4ncccc4c(Cl)cc32)c1` [Example 22], the “PCA % inh. PO” value in experiment [1] (PO, 100 mg/kg (number in parentheses)) was found to be 43%.
Turning to `O=c1[nH]c2ccc3cccnc3c2o1` [Example 18, 2-Oxo-3H-oxazolo[4,5-h]quinoline], the RMC % inh. in experiment [2] is reported as < 30%. In addition, the ED50 in experiment [1] (IP, Table I, read-out: PCA ED50 IP) amounted to 10 mg/kg; in experiment [1] (PO, Table I, read-out: PCA ED50 PO) it was 4 mg/kg.
For the compound `O=C([O-])c1nc2cc(Cl)c3cccnc3c2o1.[Na+]` [Example 14, 5-chloro-1,3-oxazolo-[4,5-h]quinoline-2-carboxylate, sodium salt], the IC50 in experiment [2] turned out to be 100 nM. Further, the “inhibition of wheal formation in the PCA test” value in experiment [1] turned out to be 51%.
Turning to `COC(=O)c1nc2cc(Cl)c3cccnc3c2o1` [Example 1C, 2-Carbomethoxy-5-chloro-1,3-oxazolo-[4,5-h]quinoline], the IC50 in experiment [2] was 300 nM. Moreover, the ED50 amounted to 0.5 mg/kg in experiment [1] (ip, intraperitoneal route, read-out: E50 value in PCA test) and 1 mg/kg in experiment [1] (oral route, read-out: E50 value in PCA test).
